One assay deals with PI3Kα E545K (Homo sapiens, UniProt P42336, E545K). Kind of assay: PI3K Biochemical Assay. The note with it: PIP2 used as substrate. As to the method:
(§1) PI3Kα activity is measured as the percent of ATP consumed following the kinase reaction using luciferase-luciferin-coupled chemiluminescence. Reactions were conducted in 384-well white, medium binding microtiter plates (Greiner). Kinase reactions were initiated by combining test compounds, ATP, substrate (PIP2), and kinase in a 20 μL volume in a buffer solution. The standard PI3Kalpha assay buffer is composed 50 mM Tris, pH 7.5, 1 mM EGTA, 10 mM MgCl2, 1 mM DTT and 0.03% CHAPS. The standard assay concentrations for enzyme, ATP, and substrate are 1.5 nM, 1 μM, and 10 μM, respectively. The reaction mixture was incubated at ambient temperature for approximately 2 h. Following the kinase reaction, a 10 μL aliquot of luciferase-luciferin mix (Promega Kinase-Glo) was added and the chemiluminescence signal measured using a Victor2 plate reader (Perkin Elmer). Total ATP consumption was limited to 40-60% and IC50 values of control compounds correlate well with literature references. Substituting PI3Kα with PI3Kβ, PI3Kγ, or PI3Kδ, the inhibitory activity of the compounds for the other isoforms of I3K were measured.

The target of another assay is PI3Kδ (Homo sapiens, UniProt O00329). The experiment in a line: PI3K Biochemical Assay. The note with it: PIP2 used as substrate; read-out: PI3K biochemical IC50 values P13Kδ. As to the method:
as §1

Another assay deals with PI3Kγ (Homo sapiens, UniProt P48736). The experiment in a line: PI3K Biochemical Assay. The note with it: PIP2 used as substrate. The method, then: as §1
PI3Kγ, sequence (P48736 whole entry): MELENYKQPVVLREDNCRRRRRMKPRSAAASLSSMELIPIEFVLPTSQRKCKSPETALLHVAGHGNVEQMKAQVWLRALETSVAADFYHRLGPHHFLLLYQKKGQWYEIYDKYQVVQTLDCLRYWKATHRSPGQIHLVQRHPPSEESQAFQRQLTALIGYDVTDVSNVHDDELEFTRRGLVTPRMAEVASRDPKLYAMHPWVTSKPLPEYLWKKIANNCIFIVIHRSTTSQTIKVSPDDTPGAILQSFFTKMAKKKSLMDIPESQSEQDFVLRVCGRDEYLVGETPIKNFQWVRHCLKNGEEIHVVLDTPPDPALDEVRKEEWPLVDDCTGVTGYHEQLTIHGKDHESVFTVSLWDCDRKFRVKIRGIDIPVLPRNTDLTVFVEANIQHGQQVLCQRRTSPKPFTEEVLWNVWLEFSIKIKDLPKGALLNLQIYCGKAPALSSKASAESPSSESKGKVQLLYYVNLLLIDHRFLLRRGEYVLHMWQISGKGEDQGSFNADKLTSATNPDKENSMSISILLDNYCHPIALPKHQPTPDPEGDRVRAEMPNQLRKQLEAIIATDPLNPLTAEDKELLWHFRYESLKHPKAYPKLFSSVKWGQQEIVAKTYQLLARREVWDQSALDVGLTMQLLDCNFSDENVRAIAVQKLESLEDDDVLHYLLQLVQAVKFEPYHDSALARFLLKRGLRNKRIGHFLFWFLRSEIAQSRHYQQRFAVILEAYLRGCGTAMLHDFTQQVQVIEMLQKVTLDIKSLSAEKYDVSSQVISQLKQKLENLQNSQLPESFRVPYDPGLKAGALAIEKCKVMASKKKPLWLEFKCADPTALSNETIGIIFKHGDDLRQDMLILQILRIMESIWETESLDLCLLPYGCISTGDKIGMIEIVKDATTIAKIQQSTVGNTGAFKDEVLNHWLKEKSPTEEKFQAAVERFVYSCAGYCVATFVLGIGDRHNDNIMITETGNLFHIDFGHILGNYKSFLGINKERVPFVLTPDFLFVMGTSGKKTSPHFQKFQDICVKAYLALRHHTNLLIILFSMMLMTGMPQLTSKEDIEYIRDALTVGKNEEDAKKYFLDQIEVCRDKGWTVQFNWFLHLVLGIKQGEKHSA
The next assay concerns the target PI3Kα H1047R (Homo sapiens, UniProt P42336, H1047R). The experiment in a line: PI3K Biochemical Assay. The note with it: PIP2 used as substrate. As to the method: as §1
For assay [1], the system named is pAKT (T308) in SK-BR-3 cells (PI3Kα wt). The experiment in a line: pAKT (T308) ELISA Assay. Type of assay: cell-based. The note with it: Homo sapiens, heregulin stimulation, read-out: Cellular pAKT (T308) IC50 PI3Kαwt SK-BR-3 hereg. As to the method: (§2) In another embodiment, the pAKT ELISA Assay was performed by seeding cells onto 96-well plates (Corning, 3904) in their respective growth media at the densities listed in Table 5. Cells were incubated at 37° C., 5% CO2 for 48 h (except MDA-MB-453 cells which were cultured in the absence of CO2). Compounds were serially diluted in DMSO and subsequently diluted in serum-free DMEM. Test compounds were added to cells in serum-free DMEM at a final concentration of 0.3% DMSO and incubated for 3 h. Cells were lysed with 130 μL of ice-cold RIPA lysis buffer (50 mM Tris-HCl, pH 7.5; 0.5% sodium deoxycholic acid; 1% Triton X-100; 0.1% SDS; 150 mM NaCl) with protease and phosphatase inhibitors (1 mM EDTA, 1 mM NaF, 20 mM β-glycerophosphate, 1 mM Na-orthovanadate, Complete-Mini EDTA-free, Roche, 11836170001, and Phosphatase Inhibitor Cocktail I, Sigma, P2850), directly in 96-well plates. Cells were lysed on ice for 60-120 min at 4° C. The supernatants were added directly to capture ELISA plates previously pre-coated with rabbit anti-AKT capture antibody. ELISA assays for pAKT(T308) and total AKT were performed with the pAKT(T308) ELISA kit (Cell Signaling Technology, 7144) and AKT1 ELISA kit (Cell Signaling Technology, 7142). For the pAKT(T308) ELISA, 85 μL of cell lysate was added to each well. For the total AKT1 ELISA, 15 μL of cell lysate and 85 μL of Starting Block buffer (Pierce, 37543) were added to each well. The plates were incubated overnight at 4° C. with gentle shaking, then washed 3 times with 200 μL of TBST (20 mM Tris, pH 7.4; 150 mM NaCl; 0.1% Tween 20) for 30 s each, and incubated for 1 h with 100 μL of detection antibody (mouse anti-pAKT(T308) antibody or mouse anti-AKT1 antibody). After 3 washes with TBST, the plates were incubated with a 1:1000 dilution of a horseradish peroxidase-labeled anti-mouse IgG (Cell Signaling Technology, 7076) in 100 μL of Starting Block buffer for 0.5 h. After 3 washes with TBST, 50 μL of SuperSignal ELISA Femto substrate solution (Thermo Scientific, 37075A) and 50 μL of SuperSignal ELISA enhancer solution mixture (Thermo Scientific, 37075B) were added to each well and the plates were incubated for approximately 2 min and protected from light. The wells were measured for luminescence using a Wallac plate reader at wavelength of 560 nm. After normalization of pAKT signal to total AKT1 signal, IC50 values were determined relative to the DMSO-treated control.

For assay [2], the system named is pAKT (T308) in HCT 116 cells (PI3Kα H1047R). The experiment in a line: pAKT (T308) ELISA Assay. Type of assay: cell-based. The note with it: Homo sapiens, IGF1 stimulation, read-out: Cellular pAKT (T308) IC50 PI3KαH1047R HCT 116 IGF1. As to the method:
as §2
A general note: ELISA stands for enzyme-linked immunosorbent assay.

In assay [3] the test system is pAKT (T308) in MDA-MB-453 cells (PI3Kα H1047R). The experiment in a line: pAKT (T308) ELISA Assay. Type of assay: cell-based. The note with it: Homo sapiens, heregulin stimulation, read-out: Cellular pAKT (T308) IC50 PI3KαH1047R MDA-MB-453 hereg. As to the method:
as §2

Assay [4] concerns pAKT (T308) in T-47D cells (PI3Kα H1047R). The experiment in a line: pAKT (T308) ELISA Assay. The format is cell-based. The note with it: Homo sapiens, T47D, IGF1 stimulation. The method, then: as §2
Assay [5] has as its system pAKT (T308) in SK-OV-3 cells (PI3Kα H1047R). The experiment in a line: pAKT (T308) ELISA Assay. Type of assay: cell-based. The note with it: Homo sapiens, IGF1 stimulation, read-out: Cellular pAKT (T308) IC50 PI3KαH1047R SK-OV-3 IGF1. As to the method: as §2
Where [6] appears, read: read-out: Cellular pAKT (T308) IC50 PI3KαH1047R T-47D IGF1.
The mark [7] stands for this setting: read-out: pAKT (T308) IC50 T-47D PI3Kα H1047R IGF1.

Where two headings read alike, the source gives them in different places.

PI3Kα H1047R, sequence (P42336 whole entry H1047R): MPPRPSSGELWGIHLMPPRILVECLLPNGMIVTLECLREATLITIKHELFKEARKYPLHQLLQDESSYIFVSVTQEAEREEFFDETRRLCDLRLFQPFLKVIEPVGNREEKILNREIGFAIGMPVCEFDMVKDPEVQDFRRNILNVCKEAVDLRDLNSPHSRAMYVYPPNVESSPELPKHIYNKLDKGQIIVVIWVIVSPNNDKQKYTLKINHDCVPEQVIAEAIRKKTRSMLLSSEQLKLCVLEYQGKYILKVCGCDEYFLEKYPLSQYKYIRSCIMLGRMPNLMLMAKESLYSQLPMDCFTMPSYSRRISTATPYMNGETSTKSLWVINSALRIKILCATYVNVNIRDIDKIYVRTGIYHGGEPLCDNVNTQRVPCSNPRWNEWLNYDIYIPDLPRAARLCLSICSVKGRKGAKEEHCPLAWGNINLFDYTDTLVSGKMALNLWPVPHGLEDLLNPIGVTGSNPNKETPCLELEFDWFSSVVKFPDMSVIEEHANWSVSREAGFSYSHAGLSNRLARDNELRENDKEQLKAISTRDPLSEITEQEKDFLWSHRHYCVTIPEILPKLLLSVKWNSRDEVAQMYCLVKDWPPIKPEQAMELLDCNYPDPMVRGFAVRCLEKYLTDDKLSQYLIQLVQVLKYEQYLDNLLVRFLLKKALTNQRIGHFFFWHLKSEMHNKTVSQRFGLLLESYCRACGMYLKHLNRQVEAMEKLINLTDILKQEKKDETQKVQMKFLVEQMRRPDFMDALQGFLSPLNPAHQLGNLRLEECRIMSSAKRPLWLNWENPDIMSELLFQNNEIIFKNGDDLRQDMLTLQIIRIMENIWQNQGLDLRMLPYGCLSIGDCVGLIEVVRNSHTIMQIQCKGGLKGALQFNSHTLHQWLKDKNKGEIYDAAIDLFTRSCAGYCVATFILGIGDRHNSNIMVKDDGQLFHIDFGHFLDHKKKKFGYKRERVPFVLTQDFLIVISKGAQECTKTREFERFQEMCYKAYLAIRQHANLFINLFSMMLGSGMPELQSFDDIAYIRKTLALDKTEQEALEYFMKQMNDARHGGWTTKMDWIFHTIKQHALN
PI3Kα H1047R, sequence (P27986 whole entry partner): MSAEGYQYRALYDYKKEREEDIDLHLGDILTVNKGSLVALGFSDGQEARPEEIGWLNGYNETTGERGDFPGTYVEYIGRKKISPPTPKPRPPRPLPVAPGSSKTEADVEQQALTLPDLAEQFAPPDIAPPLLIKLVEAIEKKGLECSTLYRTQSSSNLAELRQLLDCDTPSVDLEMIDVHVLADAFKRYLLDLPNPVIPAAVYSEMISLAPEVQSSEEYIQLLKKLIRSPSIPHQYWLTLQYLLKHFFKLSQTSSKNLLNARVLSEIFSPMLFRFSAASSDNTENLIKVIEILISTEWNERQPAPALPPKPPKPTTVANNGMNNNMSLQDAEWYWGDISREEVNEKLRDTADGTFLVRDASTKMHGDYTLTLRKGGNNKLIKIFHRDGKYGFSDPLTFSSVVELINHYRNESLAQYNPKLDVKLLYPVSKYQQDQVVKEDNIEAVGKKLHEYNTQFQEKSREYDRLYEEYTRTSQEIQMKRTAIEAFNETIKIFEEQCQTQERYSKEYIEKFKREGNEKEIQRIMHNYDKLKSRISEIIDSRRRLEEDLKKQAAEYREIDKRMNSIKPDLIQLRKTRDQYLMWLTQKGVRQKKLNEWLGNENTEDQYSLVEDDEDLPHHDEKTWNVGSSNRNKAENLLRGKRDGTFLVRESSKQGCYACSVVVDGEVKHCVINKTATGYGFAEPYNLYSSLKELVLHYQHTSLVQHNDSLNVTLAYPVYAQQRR
PI3Kα E545K, sequence (P42336 whole entry E545K): as the sequence (P42336 whole entry H1047R) above, with E545K, R1047H counted along it
PI3Kα E545K, sequence (P27986 whole entry partner): as the sequence (P27986 whole entry partner) above
PI3Kδ, sequence (O00329 whole entry): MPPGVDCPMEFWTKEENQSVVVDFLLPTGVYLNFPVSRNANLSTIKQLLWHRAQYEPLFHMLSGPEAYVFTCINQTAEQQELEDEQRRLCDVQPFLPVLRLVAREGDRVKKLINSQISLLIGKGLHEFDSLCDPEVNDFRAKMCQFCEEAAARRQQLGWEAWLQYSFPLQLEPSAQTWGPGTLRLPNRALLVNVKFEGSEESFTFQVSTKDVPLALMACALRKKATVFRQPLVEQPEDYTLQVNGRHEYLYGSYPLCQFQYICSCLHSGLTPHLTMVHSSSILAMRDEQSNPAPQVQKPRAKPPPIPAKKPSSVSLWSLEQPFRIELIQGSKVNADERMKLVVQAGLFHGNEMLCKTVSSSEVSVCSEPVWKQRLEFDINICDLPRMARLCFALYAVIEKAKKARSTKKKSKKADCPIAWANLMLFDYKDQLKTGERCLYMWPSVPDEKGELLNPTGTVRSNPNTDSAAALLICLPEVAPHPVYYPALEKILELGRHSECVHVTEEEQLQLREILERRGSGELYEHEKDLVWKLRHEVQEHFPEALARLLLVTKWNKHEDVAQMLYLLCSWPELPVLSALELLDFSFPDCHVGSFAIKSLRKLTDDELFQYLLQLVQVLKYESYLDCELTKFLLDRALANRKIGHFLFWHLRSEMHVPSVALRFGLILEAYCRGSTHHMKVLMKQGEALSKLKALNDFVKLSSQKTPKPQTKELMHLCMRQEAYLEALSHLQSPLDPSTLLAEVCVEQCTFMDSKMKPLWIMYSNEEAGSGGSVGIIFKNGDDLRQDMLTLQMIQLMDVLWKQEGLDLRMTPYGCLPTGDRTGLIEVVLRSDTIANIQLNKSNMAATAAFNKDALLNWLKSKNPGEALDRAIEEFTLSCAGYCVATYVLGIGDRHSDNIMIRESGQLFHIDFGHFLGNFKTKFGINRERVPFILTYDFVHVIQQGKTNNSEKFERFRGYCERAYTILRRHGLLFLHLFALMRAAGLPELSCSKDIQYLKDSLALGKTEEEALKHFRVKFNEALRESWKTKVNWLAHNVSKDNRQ
PI3Kδ, sequence (P27986 whole entry partner): as the sequence (P27986 whole entry partner) above

With `Cc1nc2ncc(-c3ccc4c(c3)CN(c3nc(CN(C)C)nc5c3CC(C)(C)CC5)CCO4)cc2[nH]1` [Compound 693], the IC50 was 5 nM on PI3Kα E545K; 575 nM on PI3Kδ; 1120 nM at PI3Kγ; 3 nM on PI3Kα H1047R; 339 nM in assay [1]; 168 nM in [2]. Besides, the values for the IC50 in assay [3], in assay [4] (setting [6]) and in assay [4] (setting [7]) were 40 nM, 73 nM and 73 nM, respectively.

With `Cc1nc2cc(-c3ccc4c(c3)CN(c3nc(CN(C)C)nc(C)c3C(C)C)CCO4)cnc2[nH]1` [Compound 694], the IC50 against PI3Kα E545K came out at 6 nM; on PI3Kδ, 831 nM; on PI3Kγ, 1850 nM; against PI3Kα H1047R, 5 nM; in [1] it was 115 nM; in assay [2], 130 nM. Moreover, the figures for the half-maximal inhibitory concentration (IC50) in assay [3], in assay [4] (setting [6]) and in assay [4] (setting [7]) were 18 nM, 102 nM and 102 nM, respectively.

For `COc1ccc2c(N3CCOc4ccc(-c5cnc6nc(C)[nH]c6c5)cc4C3)nc(CN(C)C)nc2c1` [Compound 696], the IC50 came out at 9 nM against PI3Kα E545K; 149 nM at PI3Kδ; 1800 nM against PI3Kγ; 5 nM on PI3Kα H1047R; 1240 nM in [1]; 400 nM in [2]. Moreover, the IC50 turned out to be 956 nM in [5], 117 nM in [3], 213 nM in [4] (setting [6]) and 213 nM in assay [4] (setting [7]).

On to `CCNc1nc2ccc(-c3ccc4c(c3)CN(c3ccnc5cc(F)ccc35)CCO4)cc2[nH]1` [Compound 698], for which the IC50 against PI3Kα E545K stood at 6 nM; at PI3Kδ, 162 nM; on PI3Kγ it was 159 nM; against PI3Kα H1047R, 7 nM; in assay [1], 2860 nM; in assay [2], 462 nM. Further, the half-maximal inhibitory concentration (IC50) is 438 nM in [5], 118 nM in assay [3], 258 nM in assay [4] (setting [6]) and 258 nM in assay [4] (setting [7]).

Take `CCNc1nc2ccc(-c3ccc4c(c3)CN(c3ncnc(NCC)c3C)CCO4)cc2[nH]1` [Compound 699]: the IC50 at PI3Kα E545K is 5 nM; at PI3Kδ, 440 nM; on PI3Kγ it was 158 nM; at PI3Kα H1047R it was 6 nM; in [1], 4540 nM; in assay [2], 719 nM. The concentration for half-maximal inhibition (IC50) in [5] came out at 1240 nM; in assay [3], 639 nM; in [4] (setting [6]), 207 nM; in assay [4] (setting [7]) it was 207 nM.

What is called IC50 is the concentration at which inhibition is half-maximal.

Values taken from patent US20140080810A1 (Exelixis, Inc., priority 2010, published 2014).
